# Measured values taken from PMC5218480 (PLoS ONE, 2017).
# System: MV-4-11 cells
# Assay: Gene expression microarray analysis (Affymetrix PrimeView) and GSEA
# Format: cell-based, human
# Parameters: RFU PODN (11730768_x_at) / Fold change /veh PODN (11730768_x_at) / RFU LINC00158 (11744669_a_at) / Fold change /veh LINC00158 (11744669_a_at) / RFU DUSP10 (11751237_a_at) / Fold change /veh DUSP10 (11751237_a_at) / RFU ID3 (11757404_x_at) / Fold change /veh ID3 (11757404_x_at) / RFU PLEKHG5 (11737974_s_at) / Fold change /veh PLEKHG5 (11737974_s_at) / RFU LRRC4B (11730491_at) / Fold change /veh LRRC4B (11730491_at) / RFU GIMAP4 (11747438_a_at) / Fold change /veh GIMAP4 (11747438_a_at) / RFU KRT8 (11758183_x_at) / Fold change /veh KRT8 (11758183_x_at) / RFU CNN1 (11734310_a_at) / Fold change /veh CNN1 (11734310_a_at) / RFU VPS37D (11726825_at) / Fold change /veh VPS37D (11726825_at) / RFU C10orf10 (11716522_x_at) / Fold change /veh C10orf10 (11716522_x_at) / RFU KIR2DL2 /// KIR2DL4 /// KIR2DL5A /// KIR2DL5B /// KIR2DS1 /// KIR2DS2 /// KIR2DS3 /// KIR2DS4 /// KIR3DL3 /// KIR3DL3 /// KIR3DS1 (11738374_at) / Fold change /veh KIR2DL2 /// KIR2DL4 /// KIR2DL5A /// KIR2DL5B /// KIR2DS1 /// KIR2DS2 /// KIR2DS3 /// KIR2DS4 /// KIR3DL3 /// KIR3DL3 /// KIR3DS1 (11738374_at) / RFU C1QL1 (11718748_at) / Fold change /veh C1QL1 (11718748_at) / RFU TMPRSS4 (11747572_a_at) / Fold change /veh TMPRSS4 (11747572_a_at) / RFU HAMP (11756126_x_at) / Fold change /veh HAMP (11756126_x_at) / RFU RNFT2 (11725882_a_at) / Fold change /veh RNFT2 (11725882_a_at) / RFU NR4A2 (11747474_a_at) / Fold change /veh NR4A2 (11747474_a_at) / RFU ABCC12 (11746883_a_at) / Fold change /veh ABCC12 (11746883_a_at) / RFU TMEM136 (11760407_x_at) / Fold change /veh TMEM136 (11760407_x_at) / RFU CLDN22 /// WWC2 (11732394_at) / Fold change /veh CLDN22 /// WWC2 (11732394_at) / RFU HLA-DPB1 (11760878_x_at) / Fold change /veh HLA-DPB1 (11760878_x_at) / RFU SPINT1 (11716480_a_at) / Fold change /veh SPINT1 (11716480_a_at) / RFU GAP43 (11754022_s_at) / Fold change /veh GAP43 (11754022_s_at) / RFU A4GNT (11735810_at) / Fold change /veh A4GNT (11735810_at) / RFU PRB3 (11715151_x_at) / Fold change /veh PRB3 (11715151_x_at) / RFU TUBB4B (11761932_at) / Fold change /veh TUBB4B (11761932_at) / RFU CAPN14 (11732068_a_at) / Fold change /veh CAPN14 (11732068_a_at) / RFU TMCC2 (11721928_a_at) / Fold change /veh TMCC2 (11721928_a_at) / RFU IRGQ (11745062_a_at) / Fold change /veh IRGQ (11745062_a_at) / RFU FAM174B (11720279_a_at) / Fold change /veh FAM174B (11720279_a_at) / RFU TMPRSS4 (11748680_a_at) / Fold change /veh TMPRSS4 (11748680_a_at) / RFU FAM212B (11763350_a_at) / Fold change /veh FAM212B (11763350_a_at) / RFU PLEKHG5 (11743358_a_at) / Fold change /veh PLEKHG5 (11743358_a_at) / RFU ZSCAN30 (11745921_a_at) / Fold change /veh ZSCAN30 (11745921_a_at) / RFU CMKLR1 (11741424_a_at) / Fold change /veh CMKLR1 (11741424_a_at) / RFU LOC101060620 /// MAPK8IP1 (11723275_at) / Fold change /veh LOC101060620 /// MAPK8IP1 (11723275_at) / RFU SPTSSB (11747773_x_at) / Fold change /veh SPTSSB (11747773_x_at) / RFU PRSS12 (11739890_at) / Fold change /veh PRSS12 (11739890_at) / RFU BIN1 (11741810_x_at) / Fold change /veh BIN1 (11741810_x_at) / RFU WNT11 (11732464_a_at) / Fold change /veh WNT11 (11732464_a_at) / RFU C10orf10 (11716521_a_at) / Fold change /veh C10orf10 (11716521_a_at) / RFU C5orf56 (11738089_at) / Fold change /veh C5orf56 (11738089_at) / RFU CYB561 (11721691_x_at) / Fold change /veh CYB561 (11721691_x_at) / RFU ANKRD19P (11752326_a_at) / Fold change /veh ANKRD19P (11752326_a_at) / RFU OR2T12 /// OR2T33 /// OR2T8 (11738714_s_at) / Fold change /veh OR2T12 /// OR2T33 /// OR2T8 (11738714_s_at) / RFU VCAN (11748164_a_at) / Fold change /veh VCAN (11748164_a_at) / RFU JSRP1 (11732532_at) / Fold change /veh JSRP1 (11732532_at) / RFU KRTAP10-11 (11738290_x_at) / Fold change /veh KRTAP10-11 (11738290_x_at) / RFU MYO3A (11730013_a_at) / Fold change /veh MYO3A (11730013_a_at) / RFU EBF3 (11725865_a_at) / Fold change /veh EBF3 (11725865_a_at) / RFU CAMK2N1 (11719241_x_at) / Fold change /veh CAMK2N1 (11719241_x_at) / RFU C5orf56 (11738088_a_at) / Fold change /veh C5orf56 (11738088_a_at) / RFU OLFML3 (11715873_a_at) / Fold change /veh OLFML3 (11715873_a_at) / RFU LOC100653217 /// NTM (11731650_a_at) / Fold change /veh LOC100653217 /// NTM (11731650_a_at) / RFU MAPK11 (11762145_a_at) / Fold change /veh MAPK11 (11762145_a_at) / RFU FIZ1 (11724087_x_at) / Fold change /veh FIZ1 (11724087_x_at) / RFU OASL (11726364_x_at) / Fold change /veh OASL (11726364_x_at) / RFU SOX15 (11748057_x_at) / Fold change /veh SOX15 (11748057_x_at) / RFU CD79A (11719716_a_at) / Fold change /veh CD79A (11719716_a_at) / RFU HIST1H1D (11736915_at) / Fold change /veh HIST1H1D (11736915_at) / RFU CASKIN2 (11723855_a_at) / Fold change /veh CASKIN2 (11723855_a_at) / RFU LOC730098 (11760151_x_at) / Fold change /veh LOC730098 (11760151_x_at) / RFU OR4N2 (11742367_at) / Fold change /veh OR4N2 (11742367_at) / RFU PRRT2 (11749266_a_at) / Fold change /veh PRRT2 (11749266_a_at) / RFU SNX32 (11753110_a_at) / Fold change /veh SNX32 (11753110_a_at) / RFU CDHR5 (11726645_a_at) / Fold change /veh CDHR5 (11726645_a_at) / RFU RCAN1 (11760418_a_at) / Fold change /veh RCAN1 (11760418_a_at) / RFU FAM167A (11723789_a_at) / Fold change /veh FAM167A (11723789_a_at) / RFU FAM26E (11764081_at) / Fold change /veh FAM26E (11764081_at) / RFU ISYNA1 (11749810_s_at) / Fold change /veh ISYNA1 (11749810_s_at) / RFU ACY1 (11761880_at) / Fold change /veh ACY1 (11761880_at) / RFU 11764098_at / Fold change /veh 11764098_at / RFU SAMD14 (11745864_x_at) / Fold change /veh SAMD14 (11745864_x_at) / RFU NPB (11741838_a_at) / Fold change /veh NPB (11741838_a_at) / RFU TMPRSS6 (11731388_a_at) / Fold change /veh TMPRSS6 (11731388_a_at) / RFU KRTAP10-2 (11738614_at) / Fold change /veh KRTAP10-2 (11738614_at) / RFU ARHGAP8 /// PRR5-ARHGAP8 (11727945_x_at) / Fold change /veh ARHGAP8 /// PRR5-ARHGAP8 (11727945_x_at) / RFU KRTAP5-7 /// NADSYN1 (11734609_at) / Fold change /veh KRTAP5-7 /// NADSYN1 (11734609_at) / RFU RASL12 (11751679_a_at) / Fold change /veh RASL12 (11751679_a_at) / RFU CDKN2B (11736163_a_at) / Fold change /veh CDKN2B (11736163_a_at) / RFU PRF1 (11729649_at) / Fold change /veh PRF1 (11729649_at) / RFU, ZNF638 /// ZNF638-IT1 / Fold change vs veh, ZNF638 /// ZNF638-IT1 / RFU, PANK3 / Fold change vs veh, PANK3 / RFU, SH3YL1 / Fold change vs veh, SH3YL1 / RFU, ZEB2 / Fold change vs veh, ZEB2 / RFU, NRIP1 / Fold change vs veh, NRIP1 / RFU, PTTG1IP / Fold change vs veh, PTTG1IP / RFU, CAPN2 / Fold change vs veh, CAPN2 / RFU, MED14 / Fold change vs veh, MED14 / RFU, SNORA58 / Fold change vs veh, SNORA58 / RFU, C1orf63 / Fold change vs veh, C1orf63 / RFU, LRRFIP1 / Fold change vs veh, LRRFIP1 / RFU, NDUFAF7 / Fold change vs veh, NDUFAF7 / RFU, SLC12A2 / Fold change vs veh, SLC12A2 / RFU, IBTK / Fold change vs veh, IBTK / RFU, ESF1 / Fold change vs veh, ESF1 / Fold change vs veh, TMEM50B / RFU, TAOK1 / Fold change vs veh, TAOK1 / RFU, ACBD3 / Fold change vs veh, ACBD3 / RFU, TMA16 / Fold change vs veh, TMA16 / RFU, RWDD3 / Fold change vs veh, RWDD3 / RFU, BCAT1 / Fold change vs veh, BCAT1 / RFU, EDEM3 / Fold change vs veh, EDEM3 / RFU, TMEM33 / Fold change vs veh, TMEM33 / RFU, WDR75 / Fold change vs veh, WDR75 / RFU, AHCTF1 / Fold change vs veh, AHCTF1 / RFU, TFRC / Fold change vs veh, TFRC / RFU, ZDHHC17 / Fold change vs veh, ZDHHC17 / RFU, NOM1 / Fold change vs veh, NOM1 / RFU, ARL8B / Fold change vs veh, ARL8B / RFU, ZBTB11 / Fold change vs veh, ZBTB11 / RFU, TAMM41 / Fold change vs veh, TAMM41 / RFU, KIAA1704 /// LOC100996395 / Fold change vs veh, KIAA1704 /// LOC100996395 / RFU, ING1 / Fold change vs veh, ING1 / RFU, TRMT61B / Fold change vs veh, TRMT61B / RFU, FUBP3 / Fold change vs veh, FUBP3 / RFU, TP53 / Fold change vs veh, TP53 / RFU, TNKS2 / Fold change vs veh, TNKS2 / RFU, ZFP14 / Fold change vs veh, ZFP14 / RFU, ACTR2 / Fold change vs veh, ACTR2 / RFU, PPP3R1 / Fold change vs veh, PPP3R1 / RFU, PIK3R1 / Fold change vs veh, PIK3R1 / RFU, HNRNPA1 / Fold change vs veh, HNRNPA1 / RFU, RNF170 / Fold change vs veh, RNF170 / RFU, ZNF28 / Fold change vs veh, ZNF28 / RFU, RNGTT / Fold change vs veh, RNGTT / RFU, OGT / Fold change vs veh, OGT / RFU, BRD1 / Fold change vs veh, BRD1 / RFU, MARS / Fold change vs veh, MARS / RFU, ZNF655 / Fold change vs veh, ZNF655 / RFU, FAHD1 / Fold change vs veh, FAHD1 / RFU, BDP1 / Fold change vs veh, BDP1 / RFU, LRRCC1 / Fold change vs veh, LRRCC1 / RFU, ARID1A / Fold change vs veh, ARID1A / RFU, ZNF146 / Fold change vs veh, ZNF146 / RFU, ZNF330 / Fold change vs veh, ZNF330 / RFU, GPN3 / Fold change vs veh, GPN3 / RFU, C9orf123 / Fold change vs veh, C9orf123 / RFU, N4BP2L2 / Fold change vs veh, N4BP2L2 / RFU, ARFIP1 / Fold change vs veh, ARFIP1 / RFU, FAM179B / Fold change vs veh, FAM179B / RFU, BCL10 / Fold change vs veh, BCL10 / RFU, UHRF1BP1L / Fold change vs veh, UHRF1BP1L / RFU, BET1 / Fold change vs veh, BET1 / RFU, CNOT2 / Fold change vs veh, CNOT2 / RFU, ZNF268 / Fold change vs veh, ZNF268 / Fold change vs veh, ZNF507 / RFU, DGCR2 / Fold change vs veh, DGCR2 / RFU, WDSUB1 / Fold change vs veh, WDSUB1 / Fold change vs veh, HSP90B1 /// MIR3652 / RFU, ADSS / Fold change vs veh, ADSS / RFU, GK / Fold change vs veh, GK / RFU, ZNF148 / Fold change vs veh, ZNF148 / RFU, TAF9 / Fold change vs veh, TAF9 / RFU, SLC1A5 / Fold change vs veh, SLC1A5 / RFU, SLMO2 / Fold change vs veh, SLMO2 / RFU, ABCC4 / Fold change vs veh, ABCC4 / RFU, LOC101060439 /// RAP1B / Fold change vs veh, LOC101060439 /// RAP1B / RFU, RFX7 / Fold change vs veh, RFX7 / RFU, GTPBP10 / Fold change vs veh, GTPBP10 / RFU, CNEP1R1 / Fold change vs veh, CNEP1R1 / RFU, BIVM-ERCC5 /// ERCC5 / Fold change vs veh, BIVM-ERCC5 /// ERCC5 / RFU, ILF3 / Fold change vs veh, ILF3 / RFU 11762660_at / Fold change /veh 11762660_at / RFU VCAN (11757783_s_at) / Fold change /veh VCAN (11757783_s_at) / RFU DDX43 (11728927_at) / Fold change /veh DDX43 (11728927_at) / RFU KRT8 (11758188_x_at) / Fold change /veh KRT8 (11758188_x_at) / RFU NKD1 (11759106_at) / Fold change /veh NKD1 (11759106_at) / RFU SRD5A1 (11742802_a_at) / Fold change /veh SRD5A1 (11742802_a_at) / RFU TPSAB1 /// TPSB2 (11721975_s_at) / Fold change /veh TPSAB1 /// TPSB2 (11721975_s_at) / RFU GSTM3 (11746129_a_at) / Fold change /veh GSTM3 (11746129_a_at) / RFU IL23R (11737362_x_at) / Fold change /veh IL23R (11737362_x_at) / RFU TMEM51 (11727254_a_at) / Fold change /veh TMEM51 (11727254_a_at) / RFU PIWIL2 (11732686_x_at) / Fold change /veh PIWIL2 (11732686_x_at) / RFU ORM1 (11744905_x_at) / Fold change /veh ORM1 (11744905_x_at) / RFU CCDC152 (11743942_at) / Fold change /veh CCDC152 (11743942_at) / RFU ECM1 (11717891_a_at) / Fold change /veh ECM1 (11717891_a_at) / RFU IL23R (11748794_a_at) / Fold change /veh IL23R (11748794_a_at) / RFU TNFAIP8L3 (11732012_x_at) / Fold change /veh TNFAIP8L3 (11732012_x_at) / RFU MBOAT4 (11741988_at) / Fold change /veh MBOAT4 (11741988_at) / RFU 11764193_at / Fold change /veh 11764193_at / RFU TMEM53 (11763286_at) / Fold change /veh TMEM53 (11763286_at) / RFU MAGEB2 (11727129_at) / Fold change /veh MAGEB2 (11727129_at) / RFU TMEM200A (11744735_a_at) / Fold change /veh TMEM200A (11744735_a_at) / RFU CCDC152 (11751479_a_at) / Fold change /veh CCDC152 (11751479_a_at) / RFU FAM211A (11726209_a_at) / Fold change /veh FAM211A (11726209_a_at) / RFU RGS16 (11746705_a_at) / Fold change /veh RGS16 (11746705_a_at) / RFU VCAN (11755009_s_at) / Fold change /veh VCAN (11755009_s_at) / RFU RHOB (11743442_s_at) / Fold change /veh RHOB (11743442_s_at) / RFU RGS16 (11720943_a_at) / Fold change /veh RGS16 (11720943_a_at) / RFU RGS16 (11720944_at) / Fold change /veh RGS16 (11720944_at) / RFU, VPS4B / Fold change vs veh, VPS4B / RFU, CREB1 / Fold change vs veh, CREB1 / RFU, DNAJC13 / Fold change vs veh, DNAJC13 / RFU, GNAQ / Fold change vs veh, GNAQ / RFU, CDK5R1 / Fold change vs veh, CDK5R1 / RFU, ZRANB3 / Fold change vs veh, ZRANB3 / RFU, CUL4A / Fold change vs veh, CUL4A / RFU, CCNY / Fold change vs veh, CCNY / RFU, UFL1 / Fold change vs veh, UFL1 / RFU, COG3 / Fold change vs veh, COG3 / RFU, DIAPH2 / Fold change vs veh, DIAPH2 / RFU, SKA2 / Fold change vs veh, SKA2 / RFU, AFF3 / Fold change vs veh, AFF3 / RFU, LMF1 / Fold change vs veh, LMF1 / RFU, IPO11 / Fold change vs veh, IPO11 / RFU, DFFB / Fold change vs veh, DFFB / RFU, FOXP1 / Fold change vs veh, FOXP1 / RFU, CARD8 / Fold change vs veh, CARD8 / RFU, STRN3 / Fold change vs veh, STRN3 / RFU, ADK / Fold change vs veh, ADK / RFU, RASSF2 / Fold change vs veh, RASSF2 / RFU, WIPF1 / Fold change vs veh, WIPF1 / RFU, LARP1B / Fold change vs veh, LARP1B / RFU, RASA1 / Fold change vs veh, RASA1 / RFU, RB1 / Fold change vs veh, RB1 / RFU, PPFIA1 / Fold change vs veh, PPFIA1 / RFU, MAT2A / Fold change vs veh, MAT2A / RFU, CCT5 / Fold change vs veh, CCT5 / RFU, WDR92 / Fold change vs veh, WDR92 / RFU, CUX1 / Fold change vs veh, CUX1 / RFU, TTC7A / Fold change vs veh, TTC7A / RFU, TMEM135 / Fold change vs veh, TMEM135 / RFU, DEPTOR / Fold change vs veh, DEPTOR / RFU, CPM / Fold change vs veh, CPM / RFU, DNAJB6 / Fold change vs veh, DNAJB6 / RFU, CACNA2D3 / Fold change vs veh, CACNA2D3 / RFU, DTX4 / Fold change vs veh, DTX4 / RFU, TFCP2 / Fold change vs veh, TFCP2 / RFU, GMCL1 /// GMCL1P1 / Fold change vs veh, GMCL1 /// GMCL1P1 / RFU, AEBP2 / Fold change vs veh, AEBP2 / RFU, SNHG1 /// SNORD22 /// SNORD25 /// SNORD26 /// SNORD27 /// SNORD28 /// SNORD29 /// SNORD31 / Fold change vs veh, SNHG1 /// SNORD22 /// SNORD25 /// SNORD26 /// SNORD27 /// SNORD28 /// SNORD29 /// SNORD31 / Fold change (Aza/veh), C12orf56 (ProbeSet 11735607_a_at) / Fold change (ACY-1035/veh), C12orf56 (ProbeSet 11735607_a_at) / Fold change (Aza/veh), FGFR1OP (ProbeSet 11751329_s_at) / Fold change (ACY-1035/veh), FGFR1OP (ProbeSet 11751329_s_at) / Fold change (Aza/veh), VPS36 (ProbeSet 11739960_a_at) / Fold change (ACY-1035/veh), VPS36 (ProbeSet 11739960_a_at) / RFU SYPL1 (11715823_x_at) / Fold change /veh SYPL1 (11715823_x_at) / RFU IGFBP7 (11715501_s_at) / Fold change /veh IGFBP7 (11715501_s_at) / RFU REEP3 (11722064_at) / Fold change /veh REEP3 (11722064_at) / RFU IGLL1 (11728026_x_at) / Fold change /veh IGLL1 (11728026_x_at): dose or concentration left out as unconfirmed
# Conditions: MV-4-11 cells, 48 hours
compound,measurement,value
Nc1ccc(-c2cccs2)cc1NC(=O)c1ccc2c(c1)cc(C1CC1)n2CCN1CCOCC1 [ACY-1035],RFU LOC101060620 /// MAPK8IP1 (11723275_at),10.15 RFU
